Assay results reported in US8362012B2, “Benzoxazine benzimidazole derivative, a pharmaceutical composition comprising the same, and a use thereof” (Daewoong Pharmaceutical Co., Ltd., priority 2008, dated 2013).

Columns and labels:
[1] = target: T1, human vanilloid-1 (hVR-1) in hVR-1-HEK293 cell line (Homo sapiens, UniProt Q8NER1); assay: Inhibitory effect on calcium influx via a vanilloid receptor (capsaicin-stimulated, Fluo-3/AM); format: cell-based; conditions: hVR-1-HEK293 cells, 1 μM of capsaicin, compounds 0.015˜2000 nM; read-out: I.A. (inhibitory activity), IC50 on intracellular calcium influx
T1 construct: expressed in transfected cells; host or cells: HEK293 Tet-on strain, doxycycline-induced
Method in brief: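 Doxycycline-induced (1 μg/mL, 2 days) hVR-1-HEK293 cells loaded with Fluo-3/AM for 90 min at 37° C, then stimulated with 1 μM capsaicin. Calcium influx expressed as background-corrected fluorescence relative to positive control, analysed by Hill equation and graded by activity criteria.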

ICR male mice = assay: Phenyl-p-quinone (PBQ)-induced writhing experiment using mice; format: in vivo; conditions: orally administered, PBQ (0.02%) intraperitoneally after 1 hour, writhing counted for 10 min

T1 sequence (Q8NER1 whole entry): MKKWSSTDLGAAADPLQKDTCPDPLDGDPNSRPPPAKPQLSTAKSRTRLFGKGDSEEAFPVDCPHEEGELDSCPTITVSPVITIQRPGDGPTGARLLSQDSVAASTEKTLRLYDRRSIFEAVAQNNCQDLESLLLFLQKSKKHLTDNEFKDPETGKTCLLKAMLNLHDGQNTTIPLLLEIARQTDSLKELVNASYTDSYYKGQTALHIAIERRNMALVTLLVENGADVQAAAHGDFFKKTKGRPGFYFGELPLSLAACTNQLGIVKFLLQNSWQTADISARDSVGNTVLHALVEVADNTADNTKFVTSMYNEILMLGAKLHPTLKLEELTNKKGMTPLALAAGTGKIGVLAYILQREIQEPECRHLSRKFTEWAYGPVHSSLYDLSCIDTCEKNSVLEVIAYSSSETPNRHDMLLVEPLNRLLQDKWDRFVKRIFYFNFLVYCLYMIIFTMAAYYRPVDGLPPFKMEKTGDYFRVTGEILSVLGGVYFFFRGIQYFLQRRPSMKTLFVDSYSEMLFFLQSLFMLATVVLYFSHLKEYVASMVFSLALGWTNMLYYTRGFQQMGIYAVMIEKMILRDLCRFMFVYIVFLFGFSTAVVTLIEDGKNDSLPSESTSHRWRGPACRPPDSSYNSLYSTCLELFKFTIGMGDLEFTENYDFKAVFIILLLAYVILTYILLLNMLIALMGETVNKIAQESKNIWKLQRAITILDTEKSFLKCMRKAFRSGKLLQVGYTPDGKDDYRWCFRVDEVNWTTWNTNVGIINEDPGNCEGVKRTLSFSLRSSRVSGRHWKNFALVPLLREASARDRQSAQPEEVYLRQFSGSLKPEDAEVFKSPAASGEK

Row | Compound | IC50 [1] [nM] | I.A. (inhibitory activity), % inhibition rate of writhing (ICR male mice)
1 | COC[C@H]1COc2c(-c3nc4ccc(C)c(C)c4[nH]3)cccc2N1c1ccc(C)cn1 [Example 100, (S)-8-(6,7-dimethyl-1H-benzimidazol-2-yl)-3-methoxymethyl-4-(5-methyl-pyridin-2-yl)-3,4-dihydro-2H-benzo[1,4]oxazine] | 20 to 100 | ++ (20˜50%)
2 | COC[C@H]1COc2c(-c3nc4ccc(C#N)cc4[nH]3)cccc2N1c1ccc(C)cn1 [Example 101, 2-[(S)-3-methoxymethyl-4-(5-methyl-pyridin-2-yl)-3,4-dihydro-2H-benzo[1,4]oxazin-8-yl]-3H-benzimidazol-5-carbonitrile] | 20 to 100 | +++ (51-80%)
3 | COC[C@H]1COc2c(-c3nc4cc(F)c(F)cc4[nH]3)cccc2N1c1ccc(C)cn1 [Example 102, (S)-8-(5,6-difluoro-1H-benzimidazol-2-yl)-3-methoxymethyl-4-(5-methyl-pyridin-2-yl)-3,4-dihydro-2H-benzo[1,4]oxazine] | < 20 | +++ (51-80%)
4 | COC[C@H]1COc2c(-c3nc4cc(Cl)c(F)cc4[nH]3)cccc2N1c1ccc(C)cn1 [Example 103, (S)-8-(5-chloro-6-fluoro-1H-benzimidazol-2-yl)-3-methoxymethyl-4-(5-methyl-pyridin-2-yl)-3,4-dihydro-2H-benzo[1,4]oxazine] | < 20 | +++ (51-80%)
5 | COC[C@H]1COc2c(-c3nc4c(C)cc(Br)cc4[nH]3)cccc2N1c1ccc(C)cn1 [Example 104, (S)-8-(6-bromo-4-methyl-1H-benzimidazol-2-yl)-3-methoxymethyl-4-(5-methyl-pyridin-2-yl)-3,4-dihydro-2H-benzo[1,4]oxazine] | < 20 | +++ (51-80%)
